According to patent publication US11320428B2, “Probe for dual-mode bio-imaging” (THE HONG KONG UNIVERSITY OF SCIENCE AND TECHNOLOGY, priority 2017, dated 2022):

What was measured:
HeLa cells [1] = experiment: Cell viability / cytotoxicity evaluated by MTT assay; assay type: cell-based
Experimental: For cell culturing, HeLa cells were cultured in the MEM containing 10% FBS and antibiotics (100 units/mL penicillin and 100 µg/mL streptomycin) in a humidity incubator with an atmosphere of 5% CO2 at 37° C. and subcultured every 2-3 days.
For cell viability evaluated by MTT assay, cells were seeded in 96-well plates at a density of 10000 cells per well. After 24 h incubation, medium in each well was replaced by 100 μL fresh medium containing different concentrations of AIE-SRS-Mito. After 24 hours of treatment, into each well, 10 μL MTT solution (5 mg/mL in PBS) was added. After 4 hours of incubation, the MTT-containing solution was gently removed and replaced with 100 μL of DMSO. After agitation, the absorption of each well at 490 nm was recorded via a plate reader (Perkin-Elmer Victor3™). Each of the experiments were performed for 6 wells parallel. The background of the blank was subtracted and the cell viability of the control group was set to unity.
Cell cytotoxicity was evaluated by MTT assay (FIG. 4E). HeLa cells were incubated with different concentrations of AIE-SRS-Mito for 24 hours. For example, HeLa cells were incubated with different concentrations of AIE-SRS-Mito for 20 or 40 min and then the medium was replaced with fresh medium, followed by further incubation for 24 hours.

HeLa cells [2] = experiment: Fluorescence cell imaging and co-localization with Mitotracker Red FM; assay type: cell-based; details: 20 min
Experimental: For cell imaging, HeLa cells were grown overnight on a 35-mm petri dish with a cover slip. The cover slip was mounted to an iron slide with observation window. The staining solution was prepared by adding the dye stock solution (10 mM in DMSO) in to 2 mL of cell medium. Before imaging, the cells were stained with 2 mL of dye solution for a certain time and then imaged under an FL microscope (BX41 upright Microscope) using different combinations of excitation and emission filters for each dye.
To verify the mitochondrial specificity of AIE-SRS-Mito, cellular imaging was first conducted by incubating HeLa cells with 5 μM AIE-SRS-Mito for 20 min.
A co-localization experiment was then conducted using AIE-SRS-Mito and a commercial mitochondrial probe, Mitotacker Red (MTR) FM. The excitation wavelength was 330-385 nm for AIE-SRS-Mito and 540-580 nm for MTR. As shown in FIGS. 4A-4D, AIE-SRS-Mito stained the linear reticulum-like structures in cells with high contrast.

HeLa cells [3] = experiment: FL-SRS imaging: intracellular dye concentration from SRS intensity (ISRS=0.1567c); assay type: cell-based; details: for percentage of high concentration region (>0.5 mM) / ultimate high concentration within the cells: 20 μM; for ultimate high concentration within the cells: covering >99.5% cell area
Source text: To eliminate the influence of light reflection and scattering on the baseline, SRS intensity ION at 2223 cm^−1 (resonance-on) and IOFF at 2160 cm^−1 (resonance-off) was used to calculate the SRS signal intensity ISRS=ION−IOFF. After subtracting the intrinsic ISRS=0.042 V in pure DMSO (background), a linear relationship between SRS intensity ISRS and the dye concentration c was obtained as ISRS=0.1567c with R^2=0.99944 in the plot shown in FIG. 5B. The analytical detection limit and quantification limit were calculated to be 8.5 μM and 28.4 μM, respectively, indicating the high sensitivity of the SRS system. Further, the SRS spectra of AIE-SRS-Mito were collected at different concentrations in DMSO and no obvious shifts in the peak position was found, indicating the inertness of Raman signal to the concentration change. Due to the inert response of SRS signal to the change of environment, the linear plot of ISRS=0.1567c can act further as a calibration for the intracellular dye concentration by keeping the same signal collecting condition.
At first, as shown in FIGS. 9A-9D, images of HeLa cells were collected by TPEF and SRS signals, respectively, and the merged image indicated a perfect co-localization of the intracellular distribution of the fluorescence and SRS signals, confirming the dual-modality of the probe. […] Due to the inertness of SRS signal and the linear relationship (ISRS=0.1567 c), the distribution of the dye concentration inside a single cell was further analyzed.
To examine the influence of intracellular concentration of AIE-SRS-Mito on the cells, attempts were made to increase the amounts of dye in the cells by increasing the incubation time. As shown in FIGS. 11A-11F, with the extension of incubation time, both the TPEF and SRS intensity were increased with a reduced mitochondrial selectivity. […] This can be attributed to the fact that the high concentration of cationic dyes in the mitochondria matrix will cause depolarization and increase the osmotic stress of the mitochondria, consequently leading to cell death as indicated by the results of the MTT assay (FIG. 4E). Similar results were found when increasing the dye concentration (FIGS. 12A-12F).
To further study acceptable intracellular concentrations of the dye molecules in a cell, the distribution of the dye concentration for cells was plotted. The percentages of high concentration region (>0.5 mM) were calculated to be 16.7%, 23.9% and 30.0% for the cells incubated with 20 μM of AIE-SRS-Mito for 30, 60 and 105 min, respectively. The ultimate high concentration within the cells was estimated to be 1.5, 2.0, 3.0 mM, respectively, covering >99.5% cell area. […] Such a high concentration is enough to cause the quenching of Rhodamine 123 in cells.

[4] = Behaviour in DMSO-water mixtures (solubility in water); assay type: physicochemical; details: aggregation/precipitation above 70 vol % water, 10 μM
Source text: Then AIE-SRS-Mito was studied in DMSO-water mixtures with different water fractions. As shown in FIGS. 1C-1D, the emission peak intensity was decreased with the increase of water fraction from 0 to 70 vol % due the quenching effect of the highly polar water. […] This is a typical AIE phenomenon, as the free intramolecular rotations of the excited molecules were restricted upon aggregation, thus blocking the non-radiative decays and favoring the radiative decay. Only a slight red-shift in peak wavelength was observed and this should be attributed to the increased solution polarity by increasing water fraction. The AIE feature and TICT effect upon excitation were further verified by the theoretical calculations (FIGS. 2A-2C).

HeLa cells [5] = experiment: SRS imaging in live cells; assay type: cell-based; details: 5 μM for 60 min, staining much shorter than EdU
Experimental: SRS imaging was conducted with live HeLa cells to validate a newly built SRS imaging system. The DNA of HeLa cells were pre-labeled with EdU by incubation with 100 μM of EdU in culture medium for 22 hours to ensure sufficient cell-uptake. FIGS. 7A-7D show the distributions of protein, lipid, cytochrome c and DNA in HeLa cells at 2950 cm^−1, 2845 cm^−1, 752 cm^−1, and 2125 cm^−1, respectively.
Due to the high Raman signal (RIE=6) and mitochondria targeting of AIE-SRS-Mito, AIE-SRS-Mito can serve as a mitochondrial probe for Raman microscopy. In previous reports, cytochrome c, an endogenous protein abundant in the mitochondria membrane, was used for visualization of the mitochondria. However, compared to the unclear and low-contrast image of mitochondria by cytochrome c (752 cm^−1, FIG. 7C), the SRS image of mitochondria in HeLa cells were obtained at 2223 cm^−1 with much more clear reticulum-like structures after incubated with 5 μM of AIE-SRS-Mito for 60 min (FIGS. 8A and 8C). Meanwhile, the nuclei of the Hela cells were prelabeled with EdU and imaged at 2125 cm^−1 (FIGS. 8B and 8D).

In the case of `CC[n+]1ccc(-c2ccc(/C(C#N)=C/c3ccc(C#Cc4ccccc4)cc3)cc2)cc1` [AIE-SRS-Mito], the IC50 (HeLa cells [1]; Homo sapiens, incubation for 24 hours, concentrations 0 to 40 μM, FIG. 4E, read-out: half maximal inhibitory concentration (IC50) of cell viability) is reported as ~7 µM, the cell viability (HeLa cells [1]; treatment with <40 μM for <40 min, then fresh medium and further 24 hours) is reported as “over 70%” and the “mitochondrial selectivity (overlap with Mitotracker Red FM fluorescence)” value (HeLa cells [2]; HeLa cells co-stained, 5 μM probe and 100 nM MTR) is reported as “good mitochondrial selectivity”. For the same compound, the cell permeability (HeLa cells [2]; HeLa cells, 5 μM, fluorescence imaging, compared to synthetic precursors) was “good cell permeability”, the “dye concentration in mitochondria matrix tolerated by cells” value (HeLa cells [3]; HeLa cells, with moderate cell viability) was “up to 3.0 mM” and the “percentage of high concentration region (>0.5 mM)” value (shortened to “percentage”) (HeLa cells [3]; HeLa, 30 min) was 16.7%. The “ultimate high concentration within the cells” value (HeLa cells [3]; HeLa, 30 min) was 1.5 mM, the “percentage” value (HeLa cells [3]; HeLa, 60 min) was 23.9% and the “ultimate high concentration within the cells” value (HeLa cells [3]; HeLa, 60 min) was 2.0 mM. For the same compound, the “percentage” value (HeLa cells [3]; HeLa, 105 min) was 30.0%, the “ultimate high concentration within the cells” value (HeLa cells [3]; HeLa, 105 min) was 3.0 mM and the “local concentration relative to incubation concentration” value (HeLa cells [3]; HeLa, incubation concentration 20 μM, 30 min) was 75 folds. The “local concentration within a cell” value (HeLa cells [3]; single HeLa cell, 20 μM for 30 min, FIG. 10D) was “up to 1.5 mM”, the solubility in water [4] was “poor solubility” and the cell permeability (HeLa cells [5]) was “good cell permeability”.
